Columns and labels:
[1] = test system: normal NK cells expanded with K562-aAPC; experiment: percent inhibition of viability; higher = more inhibition; details: 72 h, IL-2 2.5 ng/mL
Description: (§1)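 Drug sensitivity and resistance testing on K562-aAPC-expanded normal NK cells: 5 concentrations (10-fold steps over a 10,000-fold range), 72 h at 37 °C, viability by CellTiter-Glo normalised to DMSO and benzethonium chloride controls; DSS from the fitted curve.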

DERL-7 (IL-2 2.5 ng/mL) [2] = experiment: as above; details: 72 h
IMC-1 (IL-2 20 ng/mL) [3] = experiment: as above; details: 72 h
KAI3 (IL-2 2.5 ng/mL) [4] = experiment: as above; details: 72 h
KHYG-1 (IL-2 2.5 ng/mL) [5] = experiment: as above; details: 72 h
NK-92 (IL-2 2.5 ng/mL) [6] = experiment: as above; details: 72 h
NK-YS (IL-2 2.5 ng/mL) [7] = experiment: as above; details: 72 h
NKL (IL-2 2.5 ng/mL) [8] = experiment: as above; details: 72 h
SNK-6 (IL-2 2.5 ng/mL) [9] = experiment: as above; details: 72 h
YT (IL-2 2.5 ng/mL) [10] = experiment: as above; details: 72 h
[11] = test system: normal primary NK cells, pool 1 (3 donors) (IL-2 2.5 ng/mL); experiment: as above; details: 72 h
[12] = test system: normal primary NK cells, pool 1 (3 donors), resting (IL-2 0 ng/mL); experiment: as above; details: 72 h
[13] = test system: normal primary NK cells, pool 2 (3 donors) (IL-2 2.5 ng/mL); experiment: as above; details: 72 h
[14] = test system: normal primary NK cells, pool 3 (3 donors) (IL-2 2.5 ng/mL); experiment: as above; details: 72 h
[15] = test system: normal NK cells expanded with K562-aAPC; experiment: drug sensitivity score (DSS) (DSS units); higher = more sensitive; extreme values may be limits of the assay; details: 72 h; IL-2 2.5 ng/mL
Description: as §1

DERL-7 (IL-2 2.5 ng/mL) [16] = experiment: as above; details: 72 h
IMC-1 (IL-2 20 ng/mL) [17] = experiment: as above; details: 72 h
KAI3 (IL-2 2.5 ng/mL) [18] = experiment: as above; details: 72 h
KHYG-1 (IL-2 2.5 ng/mL) [19] = experiment: as above; details: 72 h
NK-92 (IL-2 2.5 ng/mL) [20] = experiment: as above; details: 72 h
NK-YS (IL-2 2.5 ng/mL) [21] = experiment: as above; details: 72 h
NKL (IL-2 2.5 ng/mL) [22] = experiment: as above; details: 72 h
SNK-6 (IL-2 2.5 ng/mL) [23] = experiment: as above; details: 72 h
YT (IL-2 2.5 ng/mL) [24] = experiment: as above; details: 72 h
[25] = test system: normal primary NK cells, pool 1 (3 donors) (IL-2 2.5 ng/mL); experiment: as above; details: 72 h
[26] = test system: normal primary NK cells, pool 1 (3 donors), resting (IL-2 0 ng/mL); experiment: as above; details: 72 h
[27] = test system: normal primary NK cells, pool 2 (3 donors) (IL-2 2.5 ng/mL); experiment: as above; details: 72 h
[28] = test system: normal primary NK cells, pool 3 (3 donors) (IL-2 2.5 ng/mL); experiment: as above; details: 72 h

COc1cc(F)c(F)c(Nc2ccc(I)cc2F)c1NS(=O)(=O)C1(C[C@H](O)CO)CC1 [Refametinib] (max concentration tested 10000 nM)
percent inhibition of viability [%]
Details | 1 nM | 10 nM | 100 nM | 1000 nM | 10000 nM
DERL-7 (IL-2 2.5 ng/mL) [2] | 6.17 | 13 | 30.2 | 53.8 | 78
IMC-1 (IL-2 20 ng/mL) [3] | -4.32 | -6.37 | -1.56 | 6.1 | 35.3
KAI3 (IL-2 2.5 ng/mL) [4] | -4.59 | 6.78 | 18.3 | 26.5 | 39.6
KHYG-1 (IL-2 2.5 ng/mL) [5] | -5.12 | 4.63 | 33.5 | 62.9 | 76.7
NK-92 (IL-2 2.5 ng/mL) [6] | -0.27 | -1.5 | -9.05 | 19.5 | 37.8
NK-YS (IL-2 2.5 ng/mL) [7] | -4.96 | -5.01 | 5 | 14.1 | 31.5
NKL (IL-2 2.5 ng/mL) [8] | -2.52 | 16.4 | 39.5 | 74.4 | 82.3
SNK-6 (IL-2 2.5 ng/mL) [9] | 2.1 | -35.6 | -25 | -46.3 | -9.38
YT (IL-2 2.5 ng/mL) [10] | 1.91 | 1.53 | 7.51 | 17.5 | 44.4
[1] | -5.33 | -11.3 | -6.84 | 4.3 | 23.1
[11] | -10.8 | 15.4 | 14 | 11.4 | 29.1
[12] | 0.56 | 9.23 | 10.7 | 12.4 | 49.4
[13] | 0 | 6.56 | 8.63 | 16.2 | 40.9
[14] | -4.86 | 5.75 | -0.36 | 3.44 | 28.4

Details | drug sensitivity score
DERL-7 (IL-2 2.5 ng/mL) [16] | 14.7
IMC-1 (IL-2 20 ng/mL) [17] | 2.67
KAI3 (IL-2 2.5 ng/mL) [18] | 6.75
KHYG-1 (IL-2 2.5 ng/mL) [19] | 16
NK-92 (IL-2 2.5 ng/mL) [20] | 4.28
NK-YS (IL-2 2.5 ng/mL) [21] | 2.69
NKL (IL-2 2.5 ng/mL) [22] | 19.1
SNK-6 (IL-2 2.5 ng/mL) [23] | 0
YT (IL-2 2.5 ng/mL) [24] | 4.03
[15] | 1.44
[25] | 3.32
[26] | 4.14
[27] | 3.81
[28] | 1.74

O=C(Nc1cccc(Cl)c1)Nc1ncc(CCNc2ncnc3ccsc23)s1 [SNS-314] (max concentration tested 1000 nM)
percent inhibition of viability [%]
Details | 0.1 nM | 1 nM | 10 nM | 100 nM | 1000 nM
DERL-7 (IL-2 2.5 ng/mL) [2] | -2.96 | -1.43 | 3.21 | 69.3 | 58.4
IMC-1 (IL-2 20 ng/mL) [3] | -9.62 | -5.56 | 14.2 | 10.2 | 70.4
KAI3 (IL-2 2.5 ng/mL) [4] | -2.71 | -1.61 | 20.4 | 30.6 | 47.3
KHYG-1 (IL-2 2.5 ng/mL) [5] | -7.32 | -4.71 | 35.4 | 53.6 | 68
NK-92 (IL-2 2.5 ng/mL) [6] | -4.05 | -1.72 | 20.3 | 45.2 | 83.4
NK-YS (IL-2 2.5 ng/mL) [7] | -8.15 | -3.63 | -0.24 | 70.4 | 75.2
NKL (IL-2 2.5 ng/mL) [8] | -9.51 | -8.35 | 6.03 | 23.5 | 42.8
SNK-6 (IL-2 2.5 ng/mL) [9] | -12.7 | -23.7 | 33.2 | 59.5 | 70
YT (IL-2 2.5 ng/mL) [10] | -4.76 | -1.46 | 7.82 | 19 | 37.3
[1] | -6.43 | -10 | 4.3 | 43.3 | 42.2
[11] | 1.31 | 16.9 | 9.79 | 4.5 | 10.9
[12] | 3.09 | 19.6 | 8.47 | 17.5 | 20.9
[13] | -8.39 | 1.8 | 4.68 | 5.41 | 5.48
[14] | -5.85 | 0.22 | 7.29 | 3.37 | 8.78

Details | drug sensitivity score
DERL-7 (IL-2 2.5 ng/mL) [16] | 13.1
IMC-1 (IL-2 20 ng/mL) [17] | 5.61
KAI3 (IL-2 2.5 ng/mL) [18] | 7.77
KHYG-1 (IL-2 2.5 ng/mL) [19] | 15
NK-92 (IL-2 2.5 ng/mL) [20] | 11.2
NK-YS (IL-2 2.5 ng/mL) [21] | 13
NKL (IL-2 2.5 ng/mL) [22] | 4.85
SNK-6 (IL-2 2.5 ng/mL) [23] | 17.1
YT (IL-2 2.5 ng/mL) [24] | 3.89
[15] | 8.52
[25] | 0
[26] | 3.41
[27] | 0
[28] | 0
